Source: PMC10791743, “Selective CK1α degraders exert antiproliferative activity against a broad range of human cancer cell lines” (Nature Communications, 2024)
pIC50: −log10 of the molar value. Where “and” joins values, the source holds several entries; their conditions need not be identical. Equal values may be shown once.

Tests used:
[1] = tested on: SK-N-AS; test: cells; set-up: Oncolines panel cell viability, ATPlite 1Step luminescence, duplicate 9-point dose response, IC50; conditions: Homo sapiens, SK-N-AS; 72 h viability; read-out: SJ3149
Protocol: (§1) Cell viability assays were performed as previously described. In brief, cells were seeded in a 384-well plate at an optimized density. The starting cell number was determined after 24 h incubation by adding ATPlite 1Step (Perkin Elmer, Groningen, the Netherlands) to each well and recording luminescence on an Envision multimode reader (Perkin Elmer, Waltham, MA). After the addition of a duplicate 9-point dilution series of SJ3149, cells were incubated for another 72 h, followed by cell counting using ATPlite 1Step. The dilution series ranged from 3.2 to 31,600 nM or was diluted 100-fold for the most sensitive cell lines to ideally capture the complete dose–response curve. Percentage viability was determined at each compound concentration by relating the observed signal to a vehicle-treated control, that is, medium containing 0.4% (v/v) DMSO. Compound IC50 values were calculated by fitting a 4-parameter logistic curve to the percentage viability values using IDBS XLfit5 (IDBS, Guildford, UK). The IC50 was limited to the maximum tested compound concentration when the IC50 exceeded the maximum tested concentration. […] To evaluate the compound’s effect and potential therapeutic application across a diverse range of human cancers, we profiled SJ3149 in Oncolines® panel consisting of 115 human cancer cell lines, of which 86 were solid tumor and 29 hematologic cell lines, including MOLM-13. Effect on cell viability was monitored using ATPLite™ (Perkin Elmer), which measures intracellular ATP content as an indirect readout of cell number, like CellTiter Glo.

[2] = tested on: SW837; test: cells; set-up: Oncolines panel cell viability, ATPlite 1Step luminescence, duplicate 9-point dose response, IC50; conditions: Homo sapiens, SW837; 72 h viability; read-out: SJ3149
Protocol: as §1

[3] = tested on: CCF-STTG1; test: cells; set-up: Oncolines panel cell viability, ATPlite 1Step luminescence, duplicate 9-point dose response, IC50; conditions: Homo sapiens, CCF-STTG1; 72 h viability; read-out: SJ3149
Protocol: as §1

[4] = tested on: Hs 746T; test: cells; set-up: Oncolines panel cell viability, ATPlite 1Step luminescence, duplicate 9-point dose response, IC50; conditions: Homo sapiens, Hs746T; 72 h viability; read-out: SJ3149
Protocol: as §1

[5] = tested on: MDR1 (P-gp); test: MDCKII-MDR1 cell-based permeability assay; type: in vitro ADME; conditions: dog, MDCK-MDR1, pH 7.4
Protocol: (§2) page 30: ADME Methods Aqueous solubility assay: Solubility assays were conducted using a Biomek FX lab automation workstation (Beckman Coulter, Inc., Fullerton, CA) and μSOL Evolution software (pION Inc., Woburn, MA). In a 96-well microplate (Cat. No: 3363, Corning Incorporated, Salt Lake, UT), 10 μL of a 10 mM test compound stock in DMSO was added to 190 μL 1-propanol (Thermo Scientific, spectroscopy, Cat. No: 434360010, Fair Lawn, NJ) to create a reference stock plate. From this reference stock plate, 5 μL solutions were mixed with 70 μL 1-propanol and 75 μL Dulbecco's Phosphate Buffered Saline (DPBS, 1X, GibcoTM, Cat. No: 14190-144, Thermo Fisher Scientifics, Waltham, MA) to generate the reference plate (high sensitivity UV plate, Cat. No: 110286, pION Inc., Woburn, MA). In a 96-well storage plate (Cat. No: 201276-100, Agilent, Santa Clara, CA), 6 μL of a 10 mM test compound stock was added to 600 μL buffer, mixed, sealed, and incubated at room temperature for 18 hours. Following incubation, the suspension was filtered through a 96-well filter plate (PVDF, 0.2 μM, Cat. No: 110037, pION Inc., Woburn, MA). The filtrate (75 μL) was combined with 75 μL 1-propanol to create the sample plate. UV spectra of the reference and sample plates were then read, and calculations based on the area under the curve (AUC) of the UV spectra were performed using μSOL Evolution software. All compounds were tested in triplicate wells. MDCKII-MDR1 cell-based permeability assay: High-throughput […]1 permeability assay was performed in the Transwell® 0.4 μm polycarbonate membrane 96-well system with modified methods1,2, […]1 cells were maintained at 37 °C in a humidified incubator with an atmosphere of 5% CO2. The cells were cultured in 75 cm2 flasks with Eagle's Minimum Essential Medium (EMEM) containing 10% fetal bovine serum (FBS), 1% non-essential amino acids (NEAA), 100 units/mL of penicillin, and 100 μg/mL of streptomycin. The […]1 cells were seeded onto inserts at a density of 1×10^4 cells/insert separately. The medium in the wells was changed every other day, and the trans epithelial electrical resistance (TEER) value was measured page 31: using a REMS Autosampler (World Precision Instruments, Sarasota, […]1 cells were grown for 5 days to reach a consistent confluency level monitored by epithelial voltohmmeter to confirm the intactness of the confluent polarized monolayer. For transport experiments, each cultured monolayer on the 96-well plate was washed twice with a transport buffer (HBSS/25 mM […] The cell-based permeability assay was initiated by the addition of each compound solution (10 μmol/L) into inserts (apical side, A) or receivers (basolateral side, B). After incubated […] (if basal to apical permeability), and concentrations were assessed by UPLC/MS (Waters; Milford, MA). All compounds were tested in triplicates. The A→B (or B→A) apparent permeability coefficients (Papp) of each compound were calculated using the equation (3): […], where dQ/dt equals the flux of a drug across the monolayer, the parameters of A equals the surface area of total insert well, and C0 is the initial concentration of substrate in the donor compartment. The efflux ratio was determined by dividing the Papp in the B-A direction by the Papp in the A-B direction. […] NADPH regenerating agent solutions A and B (Corning GentestTM, Cat. No: 451220) were purchased from Discovery Labware (Woburn, MA). Mouse liver microsomes (CD-1, pooled, GibcoTM, Cat. No: MSMCPL) were obtained from Thermo Fisher Scientific (Fredrick, MD). Pooled human liver microsomes (mixed gender, Cat. No: E0630) were purchased from XenoTech (Lenexa, KS). Stock solutions of test compounds were prepared at 10 mM in DMSO. Sample preparation for microsomal stability was modified from Di's publications3,4. […] and 4 hours) by Labcyte Echo 650 acoustic dispenser (Beckman Coulter Life Sciences, Indianapolis, IN). All compounds were tested in triplicate per time point. […]

[6] = tested on: MDCKII-MDR1 cells; test: MDCKII-MDR1 cell-based permeability assay; type: in vitro ADME
Protocol: as §2

SMILES	pIC50 [1]	pIC50 [2]	pIC50 [3]	pIC50 [4]	Papp A→B at 1 h, 10 μmol/L ([5]; apical to basolateral, read-out: MDCK-MDR1 AB) [×10⁻⁶ cm/s]	Papp B→A at 1 h, 10 μmol/L ([5]; basolateral to apical, read-out: MDCK-MDR1 BA) [×10⁻⁶ cm/s]	Papp (*10^6 cm/s), A2B, single replicate ([6]; A2B)	Papp (nm/s), A2B, single replicate ([6]; A2B)	AVG Papp A 2 B ([6]; A2B, average of 3) [×10⁻⁶ cm/s]	Papp (*10^6 cm/s), B2A, single replicate ([6]; B2A)	Papp (nm/s), B2A, single replicate ([6]; B2A)	Efflux Ratio ([6]; B2A / A2B)	AVG Papp B 2 A ([6]; B2A, average of 3) [×10⁻⁶ cm/s]
O=C1CCC(N2Cc3cc(Nc4noc5ccccc45)ccc3C2=O)C(=O)N1 (stereo not shown) [SJ3149]	< 4.50	< 4.50	< 4.50	< 4.50	27.7	36.5							
O=C1CCC(N2Cc3cc(Nc4noc5ccccc45)ccc3C2=O)C(=O)N1 (stereo not shown) [SJ001043149-1]							35.9761 *10^6 cm/s and 11.2244 *10^6 cm/s and 35.8135 *10^6 cm/s	359.761 nm/s and 112.244 nm/s and 358.135 nm/s	27.6713	44.7992 *10^6 cm/s and 31.6544 *10^6 cm/s and 32.9997 *10^6 cm/s	447.992 nm/s and 316.544 nm/s and 329.997 nm/s	1.318	36.4845
